From US20140275183A1, “AGENT FOR REDUCING SIDE EFFECTS OF KINASE INHIBITOR” (Ajinomoto Co., Inc., priority 2011, published 2014)

Columns and labels:
[1] = tested on: CDAA diet-induced liver cancer model rats; assay: CDAA (choline-deficient L-amino acid defined) diet-induced liver cancer model rats, combined intake of sorafenib and BCAA; assay type: in vivo, Fischer 344 rats
From the text: Using CDAA (choline-deficient L-amino acid defined) diet-induced liver cancer model rats, the effects of the combined intake of sorafenib and branched-chain amino acids (BCAA) were investigated. The CDAA diet used a commercially available choline-deficient diet (#518753: Choline deficient and iron supplemented L-amino acid defined rat diet, manufactured by Dyets Inc.).
Six-week old Fischer 344 rats were divided into a CDAA diet intake group, a sorafenib only intake group, and a BCAA combined intake group (N=15 for each group), and the test diet was provided freely. For the CDAA diet intake group, only the CDAA diet was supplied as the test diet. For the sorafenib only intake group, a CDAA diet mixed with an amount of sorafenib tosylate tablets (Nexavar (a registered trademark) tablets 200 mg, manufactured by Bayer Pharma AG) sufficient to provide an intake of sorafenib of 16 mg/kg/day (800 mg/50 kg/day) (hereafter referred to as the “CDAA/sorafenib diet”) was supplied. For the BCAA combined intake group, a diet prepared by mixing the CDAA/sorafenib diet supplied to the sorafenib only intake group with 2.5% by mass of a BCAA formulation (Livact (a registered trademark) granules, manufactured by Ajinomoto Co., Inc.) (hereafter referred to as the “CDAA/sorafenib/BCAA diet”) was supplied. The weight ratio between isoleucine, leucine and valine in the BCAA formulation was 1:2:1.2 (isoleucine:0.952 g, leucine: 1.904 g, and valine: 1.144 g).
Each individual was autopsied either at the time of death or after 56 weeks from the start of the test (from supply of the test diet), and the effect of treatment continuation was investigated on the basis of the hepatic fibrosis inhibitory effect, the hepatocarcinogenesis rate and the survival rate.
Further, the presence or absence of hepatic fibrosis was determined on the basis of the result of Azan staining of a liver tissue section, and the result of measuring the concentration of HYP (hydroxyproline) within the liver. The presence or absence of hepatocarcinogenesis was evaluated by immunostaining a tissue section of the liver with an antibody to the precancerous marker GST-P (glutathione S-transferase placental form), and inspecting the tissue section for the presence of staining.

Huh7 cells = assay: antitumor action enhancement effect, Huh7 cells implanted subcutaneously in nude mice; assay type: in vivo, BALB/c nude mice; conditions: sorafenib oral 5 mg/kg for 2 weeks then 30 mg/kg for 5 days, ± feed containing 3% BCAA; three weeks after start; FIG. 3
Experimental: Huh7 cells were implanted subcutaneously in BALB/c nude mice in an amount of 1×10^7 cell/mouse.
After one week, the mice were split into groups based on tumor diameter, and the groups were subjected to 2 weeks of 5 mg/kg sorafenib oral administration±food supply containing 3% BCAA (with the sorafenib administered 5 days/week).
In the third week of administration, the sorafenib dose was increased from 5 mg/kg to 30 mg/kg, and oral administration was continued for 5 days. During this time, supply of the feed containing 3% BCAA was continued.
Three weeks after the start of administration, the tumor diameter of each group was measured, and the average value+SE for the tumor volume was calculated. The tumor volume was calculated as tumor major axis/2×(minor axis)^2.

[2] = sorafenib 16 mg/kg/day in CDAA diet, with or without 2.5% BCAA formulation

## CNC(=O)c1cc(Oc2ccc(NC(=O)Nc3ccc(Cl)c(C(F)(F)F)c3)cc2)ccn1 [sorafenib, 4-[4-[[4-chloro-3-(trifluoromethyl)phenyl]carbamoylamino]phenoxy]-N-methylpyridine-2-carboxamide]
[1]; Azan staining, liver HYP, GST-P immunostaining, autopsy at death or after 56 weeks
  number of rats in which hepatic fibrosis or precancerous lesions were observed, compared with the CDAA diet intake group: fewer
[1]; [2]
  bleeding (side effect): a tendency for bleeding to occur in the gastrointestinal tract, including the anal region, was also observed
  loss of appetite (side effect): a loss of appetite due to gastrostenosis was also noted
  redness (cutaneous side effect): redness was noted not only on the four legs, but also on the trunk and the skin
Huh7 cells
  degree of shrinkage in the tumor volume compared with the control group: unchanged
